Data on 1 compound can be found in patent US20260200943A1, “COMPOUNDS FOR TREATING CANCER” (Genesis Therapeutics, Inc., priority 2022, published 2026).

SMILES strings stand for the structures.

Holding throughout (type): biochemical
Test [1] has as its target T1, CDK1/CyclinB1 (Homo sapiens, UniProt P06493).
T1 construct: Wild-type, full length CDK1 in complex with wildtype, full length CyclinB1: Carna Cat #04-102; purchased Carna 04-102
Briefly: CDK1/CyclinB1 ChEF Assay (Table A).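 Note: Ki reported in nM.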 Conditions: read-out: CDK1/CCNB1 ChEF Ki: Average Ki. The protocol: 500 nL of 50× compound in 100% DMSO is added to a 384-well low volume, white assay plate. 19.5 μL of 1.3×CDK1/CyclinB1 (Wild-type, full length CDK1 in complex with wildtype, full length CyclinB1: Carna Cat #04-102) diluted in assay buffer (50 mM Hepes, 0.01% Brij-35, 10 mM MgCl2, 0.5 mM EGTA, 1% Glycerol, and 1.2 mM DTT) is added to the plates on top of the compound and pre-incubated for 30 minutes at room temperature. Following the incubation, 5 μL of 5×Sox-chromophore (CSox) labeled peptide substrate (AQT0297, AssayQuant) & ATP diluted in assay buffer is added to the plate to initiate the reaction. The assay is incubated at room temperature for 30 min after initiation. The CSox peptide substrate is phosphorylated by CDK1/B1 upon ATP hydrolysis.
(§1) The fluorescent intensity measurement of the assay plate for all assays described above is read on a microplate reader once the assay is initiated and again at the completion of the assay. Phosphorylation of the CSox-based peptide substrate sensor results in an immediate increase in fluorescence. These raw fluorescence intensity values are normalized to calculate percent inhibition, which are fit to a four-parameter logistic curve and IC50 values are calculated. IC50 values are converted to Ki using substrate, KM^app values, and the Cheng-Prusoff equation.

The next test addresses CDK9/CyclinT1 (Homo sapiens, UniProt P50750). The experiment in a line: CDK9/CyclinT1 ChEF Assay (Table A). Conditions: 10xKm, read-out: CDK9/CCNT1 ChEF 10xKm Ki: Average Ki. Also on record: Wild-type, full length CDK9 in complex with wildtype, full length CyclinT1: Invitrogen Cat #PV4131; purchased Invitrogen PV4131. The protocol: 500 nL of 50× compound in 100% DMSO is added to a 384-well low volume, white assay plate. 19.5 μL of 1.3×CDK9/CyclinT1 (Wild-type, full length CDK9 in complex with wildtype, full length CyclinT1: Invitrogen Cat #PV4131) diluted in assay buffer (50 mM Hepes, 0.01% Brij-35, 10 mM MgCl2, 0.5 mM EGTA, 1% Glycerol, and 1.2 mM DTT) is added to the plates on top of the compound and pre-incubated for 30 minutes at room temperature. Following the incubation, 5 μL of 5×Sox-chromophore (CSox) labeled peptide substrate (AQT0449, AssayQuant) & ATP diluted in assay buffer is added to the plate to initiate the reaction. The assay is incubated at room temperature for 120 min after initiation. The CSox peptide substrate is phosphorylated by CDK9/T1 upon ATP hydrolysis.
as §1

The target in the next test is T2, CDK2/CyclinA2 (Homo sapiens, UniProt P24941).
T2 construct: Wild-type, full length CDK2 in complex with wildtype, full length CyclinA2: Carna Cat #04-103; purchased Carna 04-103
The experiment in a line: CDK2/CyclinA2 ChEF Assay (Table A). How it is done:
500 nL of 50× compound in 100% DMSO is added to a 384-well low volume, white assay plate. 19.5 μL of 1.3×CDK2/CyclinA2 (Wild-type, full length CDK2 in complex with wildtype, full length CyclinA2: Carna Cat #04-103 diluted in assay buffer (50 mM Hepes, 0.01% Brij-35, 10 mM MgCl2, 0.5 mM EGTA, 1% Glycerol, and 1.2 mM DTT) is added to the plates on top of the compound and pre-incubated for 30 minutes at room temperature. Following the incubation, 5 μL of 5×Sox-chromophore (CSox) labeled peptide substrate (AQT0255, AssayQuant) & ATP diluted in assay buffer is added to the plate to initiate the reaction. The assay is incubated at room temperature for 45 min after initiation. The CSox peptide substrate is phosphorylated by CDK2/A2 upon ATP hydrolysis.
as §1

For test [2], the target named is T1, CDK1/CyclinB1. The experiment in a line: CDK1/Cyclin B1 Mobility Shift Assay (Caliper, Table B). Conditions: read-out: CDK1/CCNB1 Caliper Ki: Average Ki. How it is done: 10 nL of 2000× compound in 100% DMSO is added to a 384-well polypropylene assay plate. 15 μL of 1.3×CDK1/B1 and 1.3× fluorescent substrate (Wild-type, full length CDK1 in complex with wildtype, full length CyclinB1: Carna Cat #04-102 and FL-Peptide 29: PerkinElmer Cat #760429) diluted in kinase buffer (50 mM Hepes, 0.01% Brij-35, 10 mM MgCl2, 1 mM EGTA, 0.05% BSA, and 2 mM DTT) is added to the plates on top of the compound, mixed, and pre-incubated for 30 minutes at room temperature. The fluorescently labeled peptide substrate is phosphorylated by CDK1/B1 upon ATP hydrolysis. Following the incubation, 5 μL of 4×ATP diluted in kinase buffer is added to the plate to initiate the reaction. Following the 30-minute incubation, the reaction is stopped by adding 75 μL of stopping buffer containing 0.5 M EDTA.
The assay plate is then read on a Lab Chip EZ Reader which separates the fluorescently labeled substrate and product peptides through a mobility difference. The phosphorylation of the substrate imparts a negative charge, which allows differences in separation as both are pulled through the microfluidic chip. The ratio of substrate and product values are used to generate percent conversion. These raw percent conversion values are normalized to calculate percent inhibition, which are fit to a four-parameter logistic curve and IC50 values are calculated. IC50 values are converted to Ki using substrate, Kmapp values, and the Cheng-Prusoff equation.

T1 sequence (P06493 whole entry): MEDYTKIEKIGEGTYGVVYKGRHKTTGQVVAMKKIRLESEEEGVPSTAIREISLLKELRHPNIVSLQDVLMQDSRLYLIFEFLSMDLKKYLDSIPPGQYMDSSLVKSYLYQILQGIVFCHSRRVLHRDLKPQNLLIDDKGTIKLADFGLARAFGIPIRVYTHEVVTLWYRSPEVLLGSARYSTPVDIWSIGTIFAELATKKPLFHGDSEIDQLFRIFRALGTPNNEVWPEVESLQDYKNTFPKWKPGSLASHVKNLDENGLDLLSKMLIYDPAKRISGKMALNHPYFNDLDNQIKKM
T1 sequence (P14635 whole entry partner): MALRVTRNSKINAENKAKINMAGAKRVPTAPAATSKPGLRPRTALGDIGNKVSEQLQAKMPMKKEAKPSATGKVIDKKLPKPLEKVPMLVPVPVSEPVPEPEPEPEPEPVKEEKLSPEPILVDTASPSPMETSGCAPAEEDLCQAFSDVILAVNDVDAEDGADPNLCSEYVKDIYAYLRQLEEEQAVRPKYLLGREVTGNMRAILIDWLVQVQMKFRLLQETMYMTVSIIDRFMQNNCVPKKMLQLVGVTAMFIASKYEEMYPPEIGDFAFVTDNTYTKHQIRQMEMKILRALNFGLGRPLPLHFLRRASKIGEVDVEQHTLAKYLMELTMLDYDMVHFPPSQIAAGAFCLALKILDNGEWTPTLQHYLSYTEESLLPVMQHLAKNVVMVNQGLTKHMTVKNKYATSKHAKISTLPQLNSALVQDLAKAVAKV
CDK9/CyclinT1, sequence (P50750 whole entry): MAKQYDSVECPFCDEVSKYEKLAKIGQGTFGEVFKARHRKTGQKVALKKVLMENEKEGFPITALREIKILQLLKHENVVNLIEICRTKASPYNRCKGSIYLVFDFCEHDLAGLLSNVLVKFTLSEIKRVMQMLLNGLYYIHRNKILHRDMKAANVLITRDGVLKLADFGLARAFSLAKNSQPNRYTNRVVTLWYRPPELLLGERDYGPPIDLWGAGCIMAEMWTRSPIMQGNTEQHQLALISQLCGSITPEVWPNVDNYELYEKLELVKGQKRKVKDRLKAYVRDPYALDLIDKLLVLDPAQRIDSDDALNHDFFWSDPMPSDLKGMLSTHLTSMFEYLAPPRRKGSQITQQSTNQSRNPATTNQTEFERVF
CDK9/CyclinT1, sequence (O60563 whole entry partner): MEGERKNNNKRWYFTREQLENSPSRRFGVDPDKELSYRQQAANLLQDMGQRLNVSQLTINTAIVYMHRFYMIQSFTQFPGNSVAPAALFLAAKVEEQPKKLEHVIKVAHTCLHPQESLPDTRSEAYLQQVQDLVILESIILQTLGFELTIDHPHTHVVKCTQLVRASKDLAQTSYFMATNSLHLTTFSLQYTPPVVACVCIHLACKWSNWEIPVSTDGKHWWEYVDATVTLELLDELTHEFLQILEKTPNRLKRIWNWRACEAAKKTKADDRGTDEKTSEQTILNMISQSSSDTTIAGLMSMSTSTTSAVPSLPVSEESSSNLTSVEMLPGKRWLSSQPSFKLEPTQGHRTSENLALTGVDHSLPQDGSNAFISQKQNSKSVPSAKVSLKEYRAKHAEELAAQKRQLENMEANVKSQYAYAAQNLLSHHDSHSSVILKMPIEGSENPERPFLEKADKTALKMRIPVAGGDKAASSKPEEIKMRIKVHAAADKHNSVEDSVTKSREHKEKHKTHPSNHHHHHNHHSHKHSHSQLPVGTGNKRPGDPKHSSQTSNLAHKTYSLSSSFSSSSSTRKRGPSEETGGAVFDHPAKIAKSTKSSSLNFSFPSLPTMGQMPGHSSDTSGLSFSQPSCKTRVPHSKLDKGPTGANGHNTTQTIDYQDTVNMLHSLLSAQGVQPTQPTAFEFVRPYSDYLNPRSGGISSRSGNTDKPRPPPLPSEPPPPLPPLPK

For `O=C1NCC=CCNS(=O)(=O)c2ccc(c(F)c2)Nc2cc([nH]n2)[C@H]2CC[C@H](C2)O1` [Compound 102, (1^1S,1^3R,2^4Z)-4^2-fluoro-2^1H-13-oxa-5-thia-3,6,11-triaza-2(5,3)-pyrazola-4(1,4)-benzena-1(1,3)-cyclopentanacyclotridecaphan-8-en-12-one 5,5-dioxide], the Ki was 1 to 25 nM at CDK1/CyclinB1 [1]; no less than 100 nM on CDK9/CyclinT1; less than 1 nM on CDK2/CyclinA2 (10xKm, read-out: CDK2/CCNA2 ChEF 10xKm Ki: Average Ki); 25 to 100 nM at CDK1/CyclinB1 [2]. For the same compound, on CDK2/CyclinA2 (selectivity over CDK9/T1), the “CDK2/CCNA2 ChEF 10xKm Ki: CDK2/A2 Selectivity over CDK9/T1” value is on record as “A (A>10)”.
